Measured values reported in ChEMBL document CHEMBL3431459, “Roche carnitine palmitoyltransferase modulator screening data (supplementary data associated with the publication CHEMBL2216752)”.
Values after ≈ are worked out from the molar mass of the structure shown.

Assays:
[1] = SUPPLEMENTARY: Lyophilisation Solubility Assay (LYSA); format: physicochemical; settings: read-out: Kinetic_solubility
[2] = molecular target: T1, Carnitine O-palmitoyltransferase 1, liver isoform (Rattus norvegicus, UniProt P32198); assay: (§1) SUPPLEMENTARY: Inhibition of Carnitine palmitoyltransferase 1, liver isoform
T1 sequence (P32198 whole entry): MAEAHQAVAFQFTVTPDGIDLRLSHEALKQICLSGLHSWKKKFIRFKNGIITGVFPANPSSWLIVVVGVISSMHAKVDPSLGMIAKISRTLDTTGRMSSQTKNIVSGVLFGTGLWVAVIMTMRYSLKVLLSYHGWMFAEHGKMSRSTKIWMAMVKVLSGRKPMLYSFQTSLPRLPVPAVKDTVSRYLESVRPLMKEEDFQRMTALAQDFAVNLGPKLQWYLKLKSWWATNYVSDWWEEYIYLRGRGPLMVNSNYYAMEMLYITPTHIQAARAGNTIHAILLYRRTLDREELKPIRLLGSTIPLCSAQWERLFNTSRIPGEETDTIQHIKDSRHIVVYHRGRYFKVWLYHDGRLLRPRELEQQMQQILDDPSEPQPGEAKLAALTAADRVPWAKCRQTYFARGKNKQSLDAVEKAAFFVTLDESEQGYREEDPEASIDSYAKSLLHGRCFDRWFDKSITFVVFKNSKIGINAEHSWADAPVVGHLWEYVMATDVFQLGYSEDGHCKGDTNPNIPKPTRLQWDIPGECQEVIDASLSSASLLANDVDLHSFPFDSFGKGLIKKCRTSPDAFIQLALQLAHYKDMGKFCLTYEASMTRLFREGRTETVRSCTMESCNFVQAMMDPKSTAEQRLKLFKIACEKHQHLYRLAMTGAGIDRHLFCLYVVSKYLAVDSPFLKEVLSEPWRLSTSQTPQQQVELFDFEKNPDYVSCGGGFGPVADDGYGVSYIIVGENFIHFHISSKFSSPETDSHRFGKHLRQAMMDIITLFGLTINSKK

[3] = molecular target: T2, Carnitine O-palmitoyltransferase 1, muscle isoform (Homo sapiens, UniProt Q92523); assay: SUPPLEMENTARY: Inhibition of Carnitine palmitoyltransferase 1, muscle isoform; design: species or system Muscle tissue
T2 sequence (Q92523 whole entry): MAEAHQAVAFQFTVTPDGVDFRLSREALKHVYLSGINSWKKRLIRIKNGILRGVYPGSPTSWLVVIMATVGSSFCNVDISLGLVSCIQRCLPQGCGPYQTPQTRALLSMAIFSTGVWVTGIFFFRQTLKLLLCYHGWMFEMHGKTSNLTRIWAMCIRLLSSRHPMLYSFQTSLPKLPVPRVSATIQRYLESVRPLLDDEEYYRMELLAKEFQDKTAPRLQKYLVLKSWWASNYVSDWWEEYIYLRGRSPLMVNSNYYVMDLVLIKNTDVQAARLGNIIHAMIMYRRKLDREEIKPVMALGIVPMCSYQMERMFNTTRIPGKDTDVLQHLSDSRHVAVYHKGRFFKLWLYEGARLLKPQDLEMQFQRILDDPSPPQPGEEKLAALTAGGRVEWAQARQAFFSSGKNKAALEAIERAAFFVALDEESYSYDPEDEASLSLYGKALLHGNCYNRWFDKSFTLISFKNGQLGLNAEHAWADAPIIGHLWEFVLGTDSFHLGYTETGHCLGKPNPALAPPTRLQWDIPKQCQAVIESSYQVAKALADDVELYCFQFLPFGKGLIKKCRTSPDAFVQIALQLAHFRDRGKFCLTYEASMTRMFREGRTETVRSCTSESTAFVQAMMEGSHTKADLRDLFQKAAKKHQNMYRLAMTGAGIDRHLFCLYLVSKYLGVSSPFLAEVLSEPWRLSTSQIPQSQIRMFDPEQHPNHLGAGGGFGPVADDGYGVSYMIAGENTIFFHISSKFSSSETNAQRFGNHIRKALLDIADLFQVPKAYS

[4] = SUPPLEMENTARY: Lipophilicity (log D) Determination by high-throughput shake-flask; format: physicochemical; settings: octanol/water
[5] = SUPPLEMENTARY: PAMPA permeability assay; format: physicochemical; settings: read-out: Permeability
[6] = molecular target: T3, Carnitine O-palmitoyltransferase 1, liver isoform (Homo sapiens, UniProt P50416); assay: as §1
T3 sequence (P50416 whole entry): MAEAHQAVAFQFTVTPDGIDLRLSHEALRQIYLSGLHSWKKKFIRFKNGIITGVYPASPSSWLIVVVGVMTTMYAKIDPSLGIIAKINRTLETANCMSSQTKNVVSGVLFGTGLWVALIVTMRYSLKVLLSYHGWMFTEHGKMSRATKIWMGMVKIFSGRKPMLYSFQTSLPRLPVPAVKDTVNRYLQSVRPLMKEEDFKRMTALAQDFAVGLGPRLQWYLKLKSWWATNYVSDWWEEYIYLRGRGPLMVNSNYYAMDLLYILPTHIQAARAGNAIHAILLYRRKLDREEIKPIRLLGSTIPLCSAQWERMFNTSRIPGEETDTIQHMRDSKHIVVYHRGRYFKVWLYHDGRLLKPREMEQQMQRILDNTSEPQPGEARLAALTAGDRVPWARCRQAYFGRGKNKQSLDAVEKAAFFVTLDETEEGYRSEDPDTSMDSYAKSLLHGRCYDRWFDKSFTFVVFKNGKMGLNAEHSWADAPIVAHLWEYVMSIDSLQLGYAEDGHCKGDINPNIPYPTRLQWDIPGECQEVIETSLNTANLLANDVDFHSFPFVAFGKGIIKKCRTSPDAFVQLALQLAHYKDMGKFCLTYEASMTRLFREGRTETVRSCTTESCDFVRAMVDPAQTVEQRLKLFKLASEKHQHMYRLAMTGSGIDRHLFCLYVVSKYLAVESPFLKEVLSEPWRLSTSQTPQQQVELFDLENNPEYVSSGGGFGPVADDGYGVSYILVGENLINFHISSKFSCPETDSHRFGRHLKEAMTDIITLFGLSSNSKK

[7] = molecular target: T4, Carnitine O-palmitoyltransferase 2, mitochondrial (Homo sapiens, UniProt P23786); assay: (§2) SUPPLEMENTARY: Inhibition of Carnitine palmitoyltransferase 2
T4 sequence (P23786 whole entry): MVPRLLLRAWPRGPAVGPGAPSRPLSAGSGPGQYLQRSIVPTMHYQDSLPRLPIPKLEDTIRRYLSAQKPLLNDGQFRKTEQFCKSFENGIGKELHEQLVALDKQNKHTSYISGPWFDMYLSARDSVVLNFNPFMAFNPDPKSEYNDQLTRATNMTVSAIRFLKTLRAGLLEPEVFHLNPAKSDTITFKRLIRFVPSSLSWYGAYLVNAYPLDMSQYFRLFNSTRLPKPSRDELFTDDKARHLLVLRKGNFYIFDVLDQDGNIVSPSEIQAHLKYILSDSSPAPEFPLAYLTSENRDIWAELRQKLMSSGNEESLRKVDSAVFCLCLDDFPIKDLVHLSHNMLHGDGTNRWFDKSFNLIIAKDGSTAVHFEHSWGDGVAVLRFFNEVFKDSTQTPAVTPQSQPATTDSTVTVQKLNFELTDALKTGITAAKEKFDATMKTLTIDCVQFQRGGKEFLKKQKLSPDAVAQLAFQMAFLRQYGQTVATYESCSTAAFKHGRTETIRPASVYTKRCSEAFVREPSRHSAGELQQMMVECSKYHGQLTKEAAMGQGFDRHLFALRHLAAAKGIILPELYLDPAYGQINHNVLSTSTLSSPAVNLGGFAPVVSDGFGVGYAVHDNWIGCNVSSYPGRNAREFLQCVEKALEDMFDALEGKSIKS

[8] = molecular target: T5, Carnitine O-palmitoyltransferase 2, mitochondrial (Rattus norvegicus, UniProt P18886); assay: as §2
T5 sequence (P18886 whole entry): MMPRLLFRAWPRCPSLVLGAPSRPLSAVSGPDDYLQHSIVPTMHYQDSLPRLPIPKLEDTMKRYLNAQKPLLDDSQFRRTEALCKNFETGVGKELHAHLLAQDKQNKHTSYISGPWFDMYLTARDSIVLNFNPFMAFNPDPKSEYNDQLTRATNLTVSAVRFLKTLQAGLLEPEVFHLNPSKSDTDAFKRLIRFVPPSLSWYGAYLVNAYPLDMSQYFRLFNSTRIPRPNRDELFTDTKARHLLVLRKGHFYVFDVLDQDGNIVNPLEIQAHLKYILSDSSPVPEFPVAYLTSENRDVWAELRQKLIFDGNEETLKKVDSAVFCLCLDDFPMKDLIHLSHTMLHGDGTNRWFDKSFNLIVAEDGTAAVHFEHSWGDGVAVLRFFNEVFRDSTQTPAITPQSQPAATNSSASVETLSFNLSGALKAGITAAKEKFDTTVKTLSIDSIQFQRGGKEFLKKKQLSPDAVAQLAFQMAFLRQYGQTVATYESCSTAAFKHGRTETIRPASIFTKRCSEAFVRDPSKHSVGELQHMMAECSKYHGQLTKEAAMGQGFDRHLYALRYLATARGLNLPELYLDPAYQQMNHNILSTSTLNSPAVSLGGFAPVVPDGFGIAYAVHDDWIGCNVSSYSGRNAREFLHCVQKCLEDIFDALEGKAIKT

Row | SMILES | solubility kinetic [1] | IC50 [2] | IC50 [3] | logD [4] | Papp [5] | IC50 [6] | IC50 [7] | IC50 [8]
1 | O=C(COc1ccccc1)N1CCCC[C@@H]1c1nc(-c2ccccn2)cs1 | 24 µg/mL (≈ 63.2 µM) | 128 nM | > 100000 nM | 3.37 | 9.04 ×10⁻⁶ cm/s |  |  | 
2 | COc1ccc(Cl)cc1S(=O)(=O)Nc1cccc(C(=O)Nc2ccc(-c3nnn[nH]3)cc2)c1 | 25 µg/mL (≈ 51.6 µM) | 14.5 nM | 674 nM | 0.35 |  | 18.6 nM | > 100 µM | > 100 µM
3 | COc1ccc(Cl)cc1S(=O)(=O)N1CCc2ccc(C(=O)Nc3ccc(C(=O)O)c(F)c3)cc21 | 26 µg/mL (≈ 51.5 µM) | 66.3 nM | 989 nM | 0.38 | 1.67 ×10⁻⁶ cm/s |  | 1.37 µM | 4.86 µM
4 | COc1ccc(Cl)cc1S(=O)(=O)c1c[nH]c2ccc(C(=O)Nc3ccc(CC(=O)O)cc3)cc12 | 41 µg/mL (≈ 82.2 µM) | 23.4 nM | 235 nM | 0.17 |  | 21.9 nM | > 100 µM | > 100 µM
5 | COc1ccc(Cl)cc1S(=O)(=O)N1CCCc2ccc(Oc3ccc(CC(=O)O)cc3)cc21 |  |  | 145 nM | 1.79 | 0.77 ×10⁻⁶ cm/s | 550 nM | > 100 µM | > 100 µM
6 | COc1ccc(Cl)cc1S(=O)(=O)N1CC[S+]([O-])c2ccc(C(=O)Nc3ccc(CC(=O)O)cc3)cc21 (configuration not stated) | 456 µg/mL (≈ 831 µM) | 225 nM | 259 nM | -0.86 |  | 220 nM | > 100 µM | > 100 µM
7 | COc1ccc(Cl)cc1S(=O)(=O)c1nn(C)c2ccc(C(=O)Nc3ccccc3)cc12 | < 1 µg/mL | 29.2 nM | > 100000 nM | > 3 |  | 84.5 nM | > 100 µM | > 100 µM
8 | COc1ccc(Cl)cc1S(=O)(=O)c1cn(CC(=O)O)c2ccc(C(=O)Nc3ccccc3)cc12 | > 557 µg/mL | 7.2 nM | 11100 nM | -0.23 |  | 36.1 nM | > 100 µM | > 100 µM
9 | COc1ccc(Cl)cc1S(=O)(=O)c1cn(CSC)c2ccc(C(=O)Nc3ccccc3)cc12 | < 1 µg/mL | 25.2 nM | > 100000 nM | > 3 |  | 188 nM | > 100 µM | > 100 µM
10 | COc1ccc(Cl)cc1S(=O)(=O)c1c[nH]c2ccc(C(=O)Nc3ccc(C(=O)O)cc3)cc12 | 23 µg/mL (≈ 47.4 µM) | 20.3 nM | 528 nM | 0.84 |  | 17.5 nM | 1.96 µM | 5.12 µM

Results, then the molecule that gave them:

Row | solubility kinetic [1] | IC50 [2] | IC50 [3] | logD [4] | Papp [5] | IC50 [6] | IC50 [7] | IC50 [8] | SMILES
11 | 66 µg/mL (≈ 130 µM) | 18.9 nM | 202 nM | -0.02 |  | 39.3 nM | > 100 µM | > 100 µM | COc1ccc(Cl)cc1S(=O)(=O)c1c[nH]c2ccc(C(=O)Nc3nc(CC(=O)O)cs3)cc12
12 | < 1 µg/mL | 61 nM | > 100000 nM | > 3 |  | 111 nM | > 100 µM | > 100 µM | COc1ccc(Cl)cc1S(=O)(=O)c1cn(CS(C)(=O)=O)c2ccc(C(=O)Nc3ccccc3)cc12
13 | 11 µg/mL (≈ 21.6 µM) | 69.5 nM | 4070 nM | 2.84 |  | 102 nM | 11.5 µM | 22.5 µM | O=C(Nc1ccc(C(=O)O)c(F)c1)c1ccc2c(c1)N(S(=O)(=O)c1ccc(Cl)c(Cl)c1)CC2
14 | < 1 µg/mL | 761 nM | > 100000 nM | > 4 |  |  | > 100 µM | > 100 µM | COc1ccc(Cl)cc1-c1csc([C@H]2CCCCN2C(=O)COc2ccccc2)n1
15 | 374 µg/mL (≈ 748 µM) | 24.4 nM | 39300 nM | 0.31 |  | 38.4 nM | > 100 µM | > 100 µM | COc1ccc(Cl)cc1S(=O)(=O)c1nn(CC(=O)O)c2ccc(C(=O)Nc3ccccc3)cc12
16 | < 1 µg/mL | 129 nM | 77300 nM | > 3 |  |  | 6.23 µM | 56.4 µM | O=C(COc1ccccc1)N1CCCC[C@@H]1c1csc(-c2n[nH]c3ccccc23)n1
